Tests used:
[1] = system: 5-α-reductase; conditions: cited from earlier work
[2] = system: dihydrotestosterone (DHT); conditions: cited from earlier work
[3] = In vitro skin permeation, modified Franz-type diffusion cell; format: in vitro ADME; conditions: human epidermis, receiver compartment, n = 5
Experimental: An original Franz-type diffusion cell system was modified to accommodate widened vertical columns and removal of the bowl shape. The diffusion area was 0.636 cm^2 with a receiver capacity of approximately 3.0 mL. The receiver volume for each cell was individually calibrated.
Human epidermis samples were prepared according to standard protocols. […] The samples were used as a membrane between the two chambers in the Franz cells. After about 6-8 hours, fat cells were carefully removed from the full thickness skin. The skin sections were cut into 2.5×2.5 cm squares, sealed in aluminum foil and frozen at −20° C. Prior to preparation, the samples were thawed to room temperature, immersed in 60° C. water, and the epidermis was gently separated from the remaining tissue with forceps and allowed to dry.
Before being mounted on the Franz cell, each epidermal sheet was visually inspected to avoid any possible defects. Additionally, the electrical resistance of isolated epidermis was measured to ensure the integrity of the barrier membrane. Epidermis samples with a resistance above 18 kΩ/cm^3 were used for experiments.
The upper and lower parts of the Franz cell were sealed with paraffin film and fastened together by a clamp. […]
Dutasteride concentration was determined using LC/MS-MS according to the following parameters: […]

[4] = after sustained oral administration

Compound: CC(C)(C)NC(=O)[C@H]1CC[C@H]2[C@@H]3CC[C@H]4NC(=O)C=C[C@]4(C)[C@H]3CC[C@]12C [Finasteride]
- Inhibition of Type I 5-α-reductase [1]: does not inhibit
- Inhibition of Type II and Type III 5-α-reductase [1]: selectively inhibits
- Reduction of serum DHT levels [2, 4]: 65-70%
- Typical reduction in DHT serum concentration ([2]; oral finasteride therapy, comparison value): 60-70%

Compound: C[C@]12C=CC(=O)N[C@@H]1CC[C@@H]1[C@@H]2CC[C@]2(C)[C@@H](C(=O)Nc3cc(C(F)(F)F)ccc3C(F)(F)F)CC[C@@H]12 [Dutasteride]
- Inhibition of the three 5-α-reductase isoforms [1]: inhibits all three 5-α-reductase isoforms
- Suppression of DHT production [2, 4]: up to 99%
- Permeated Amount After 24 hours (dutasteride) [3]: never detected
